Laboratory results from patent publication US10287616B2, “Label free biosensors, gram-negative bacteria detection, and real-time and end point determination of antibiotic effects” (priority 2015, dated 2019).
“And” between values parts separate entries of the source, which are not always exact repeats. Equal values may be shown once. Read-outs that look alike come from different tables or passages of the source.

Columns and labels:
E. coli W1485 [1] = conditions: for ΔR (Ω) / ΔR/R0 (%): 3 hours; for ΔF (Hz): FIG. 26
Description: (§1) Experiments were also performed to study the concentration of the antibiotics and the length of the incubation time of antibiotics for their ability to kill or inhibit the growth of the bacteria. Different concentrations of each antibiotic were added to 5×10^8 cells/mL E. coli respectively, and then incubated at 37° C. and 280 rpm on the shaker. After 3 hours of incubation, 1 μL of antibiotic treated E. coli culture was added to the Con A sensor cell containing 1 mL of 10 mM HEPES buffer (pH 7.4) for QCM measurements, respectively. […] 1 μL of each antibiotic treated E. coli was taken at different incubation times (i.e., 0, 1, 2, 3 hours) and was added into the Con A senor cell containing 1 mL of 10 mM HEPES buffer (pH 7.4) for QCM measurements.
Because antibiotics from different classes have different mechanisms of action and antibiotic effects on bacterial morphology and viability are concentration and time dependent, it was hypothesized that the ability of antibiotics to kill the bacteria or inhibit its growth may be class and concentration dependent, which will affect the interaction between the LPS and Con A sensor. To further study the effects of concentration and length of incubation time on the bactericidal activities of antibiotics, different concentration of antibiotics were added into the broth containing E. coli and incubated for different lengths of times. […] FIGS. 26D through 26F show the histogram of ΔF or ΔR changes vs antibiotics with different concentrations that are again correlated to each other with ceftriaxone showing consistent increase in resistance with increasing its concentration. This is probably due to more and more cell lysis, thereby intensifying the fluidic environment.
To further compare the effect of concentrations on the bactericidal activities of the antibiotics, the binding kinetics between Con A sensor and E. coli were studied. The binding between Con A sensor and E. coli can be described by eq 2. [Con Aattached to gold]+[E. coli]→[E. coli/Con Aattached to gold] (2)
The amount of the complex E. coli/Con A formed at time t after the injection is given by eqs 3 and […], where ΔMmax is the maximum binding amount of E. coli/Con A, ΔM is the measured binding amount, and t is the time after injection. τ is the relaxation time associated with E. coli binding, which is calculated from curve fittings of the ΔF during the binding process. A higher τ value means a longer binding time is required between the Con A and E. coli.

E. coli W1485 [2] = conditions: for ΔF (Hz): 30 mg/L antibiotic added after E. coli attached to sensor; for ΔF (Hz) / ΔR (Ω) / ΔR/R0 (%): FIG. 25A; for ΔR (Ω) / ΔR/R0 (%): 30 mg/L antibiotic added after E. coli attached; for frequency after antibiotic addition: 2 hour period after addition, from 350, 350 and 370 Hz before addition; for reduction of binding to (LPS activity, real time analysis): 1 hour time point
Description: The gold QCM electrode consisted of a thin AT-cut quartz crystal wafer with vapor deposited gold electrode on each side (10 MHz, non-polished with 1000 A gold, geometric area is 0.22 cm2, International Crystal Company). For all QCM test, the gold electrode was mounted on the side of a KeI-F cell chamber. Frequency monitoring was performed using a Maxtek RQCM quartz crystal microbalance research instrument. Baseline was recorded in 1 mL of 10 mM HEPES buffer containing 1 mM Ca^2+ and 1 mM Mn^2+. Each of the bacterial samples to be analyzed was then added into the detection sensor cell after stabilization of resonance frequency (shift less than 1 Hz·min-1). A small magnetic stir bar was used to increase the mass transfer through convection. The frequency changes (ΔF) of the QCM were monitored using a network/spectrum/impedance analyzer (Agilent 4395A) controlled by a PC via an Intel card.
For the real time measurements, Con A sensor was mounted in a biosensor cell containing 1 mL of 10 mM HEPES buffer (pH 7.4). Real time QCM measurements were obtained for each experimental step. First, 1 μL of 5×10^8 cells/mL E. coli obtained from the stationary phase was added into the biosensor cell. When frequency reached a constant value, it was washed with 1 mL of 10 mM HEPES buffer to remove the unbound E. coli. […] The frequency changes vs time and the damping resistance vs time were recorded by QCM.
Different types of antibiotics have differing abilities to alter the LPS properties and subsequent reduction in their binding. This can be used as an indicator for the antibiotic effects for killing the bacteria or inhibiting their growth. The biosensor ability to quantitatively measure these parameters real time was tested. For that purpose, the Con A sensor was exposed to 1 μL of 5×10^8 cells/mL E. coli to capture the bacteria via Con A-LPS binding. The unbound E. coli was removed by washing with 1 mL of 10 mM HEPES buffer.

E. coli W1485 [3] = conditions: for ΔF (Hz): 10 mg/L antibiotic, FIG. 27; for ΔR (Ω) / ΔR/R0 (%): 10 mg/L
Description: as §1
In most studies dealing with antibiotic-induced LPS release, bioreactive endotoxin has been measured by means of the Limulus amoebocyte lysate (LAL) assay, which involves an enzymatic reaction triggered by the core region of LPS. […] However, some antibiotics (i.e., aminoglycoside) are known to suppress the LAL reaction, which limits the application of LAL. Reproducible ELISA also can be used to detect LPS. […] A QCM is known to provide a very sensitive mass measuring device and dispense with the time- and cost-demanding labeling step and also eliminates any possible interference of the “true” binding process due to the presence of the labels.

[4] = E. coli binding to Con A sensor after 1 mg/L antibiotic
[5] = E. coli binding to Con A sensor after 10 mg/L antibiotic
[6] = E. coli binding to Con A sensor after 30 mg/L antibiotic

| SMILES | ΔR (Ω) (E. coli W1485 [1]; 1 mg/L antibiotic) | ΔR/R0 (%) (E. coli W1485 [1]; 1 mg/L antibiotic) | ΔR (Ω) (E. coli W1485 [1]; 10 mg/L antibiotic) | ΔR/R0 (%) (E. coli W1485 [1]; 10 mg/L antibiotic) | ΔR (Ω) (E. coli W1485 [1]; 30 mg/L antibiotic) | ΔR/R0 (%) (E. coli W1485 [1]; 30 mg/L antibiotic) | ΔF (Hz) (E. coli W1485 [2]) | ΔR (Ω) (E. coli W1485 [2]) | ΔR/R0 (%) (E. coli W1485 [2]) | frequency after antibiotic addition (E. coli W1485 [2]; 30 mg/L) [Hz] | reduction of binding to (LPS activity, real time analysis) (E. coli W1485 [2]; 30 mg/L) [%] | ΔF (Hz) (E. coli W1485 [3]; incubation time 0 h) | ΔR (Ω) (E. coli W1485 [3]; 0 h) | ΔR/R0 (%) (E. coli W1485 [3]; 0 h) | ΔR (Ω) (E. coli W1485 [3]; 1 h) | ΔR/R0 (%) (E. coli W1485 [3]; 1 h) | ΔR (Ω) (E. coli W1485 [3]; 2 h) | ΔR/R0 (%) (E. coli W1485 [3]; 2 h) | ΔR (Ω) (E. coli W1485 [3]; 3 h) | ΔR/R0 (%) (E. coli W1485 [3]; 3 h) | further results |
| --- | --- | --- | --- | --- | --- | --- | --- | --- | --- | --- | --- | --- | --- | --- | --- | --- | --- | --- | --- | --- | --- |
| CN(C)[C@@H]1C(O)=C(C(N)=O)C(=O)[C@@]2(O)C(O)=C3C(=O)c4c(O)cccc4[C@@](C)(O)[C@H]3C[C@@H]12 [tetracycline] | 16.3 Ω | 5.3 | 17.2 Ω | 5.6 | 14.5 Ω | 4.7 | −20 | −2.0 Ω | −0.6 | 350 | 95 | 378 | 16 Ω | 5.3 | 17 Ω | 5.6 | 16 Ω | 5.2 | 15.6 Ω | 5.1 | ΔF (Hz) (E. coli W1485 [1]; pretreated 3 hours with 10 mg/L antibiotic): 200 Hz and 212 Hz; ΔF (Hz) (E. coli W1485 [1]; pretreated 3 hours with 30 mg/L antibiotic): 160 Hz; ΔF (Hz) (E. coli W1485 [1]; stationary phase E. coli pretreated 3 hours with 1 mg/L antibiotic): 260 Hz and 262 Hz; reduction of binding to (LPS activity, real time analysis) (E. coli W1485 [2]; 30 mg/L, listed as Tetracycline): 95%; ΔF (Hz) (E. coli W1485 [3]; incubation time 1 h): 329 Hz; ΔF (Hz) (E. coli W1485 [3]; incubation time 2 h): 279 Hz; ΔF (Hz) (E. coli W1485 [3]; incubation time 3 h): 244 Hz |
| O=C(O)c1cn(C2CC2)c2cc(N3CCNCC3)c(F)cc2c1=O [ciprofloxacin] | 14.5 Ω | 4.7 | 10.5 Ω | 3.4 | 10.6 Ω | 3.5 | – | −2.0 Ω | −0.6 | 320 | 91 | – | 15 Ω | 4.9 | 17 Ω | 5.6 | 18.6 Ω | 6.1 | 14 Ω | 4.6 | relaxation time τ (E. coli W1485 [1]; [4]): 21 min; relaxation time τ (E. coli W1485 [1]; [5]): 23.5 min; relaxation time τ (E. coli W1485 [1]; [6]): 23.6 min; most effective concentration to act against this bacterial strain (E. coli W1485 [1]; no big change in ΔF from 10 to 30 mg/L): 10 mg/L; reduction of binding to (LPS activity, real time analysis) (E. coli W1485 [2]; 30 mg/L, listed as Ciprofloxacin): 91% |
| CO/N=C(\C(=O)N[C@@H]1C(=O)N2C(C(=O)O)=C(CSc3nc(=O)c(=O)[nH]n3C)CS[C@H]12)c1csc(N)n1 [ceftriaxone] | 16 Ω | 5.2 | 16.5 Ω | 5.4 | 18 Ω | 5.8 | −25 | −2.2 Ω | −0.7 | 325 | 93 | 356 | 15 Ω | 4.9 | 15.5 Ω | 5.0 | 16.1 Ω | 5.2 | 16.6 Ω | 5.4 | relaxation time τ (E. coli W1485 [1]; [4]): 15.5 min; relaxation time τ (E. coli W1485 [1]; [5]): 18.4 min; relaxation time τ (E. coli W1485 [1]; [6]): 22.5 min; decrease in frequency (fold of value before antibiotic) (E. coli W1485 [2]; 30 mg/L, 2 hour period after antibiotic addition): 0.93 fold; reduction of binding to (LPS activity, real time analysis) (E. coli W1485 [2]; 30 mg/L, listed as Ceftriaxone): 93%; ΔF (Hz) (E. coli W1485 [3]; incubation time 1 h): 256 Hz; ΔF (Hz) (E. coli W1485 [3]; incubation time 2 h): 223 Hz; ΔF (Hz) (E. coli W1485 [3]; incubation time 3 h): 187 Hz |
